5 molecules from paper PMC3048538, “Differences in the mannose oligomer specificities of the closely related lectins from Galanthus nivalis and Zea mays strongly determine their eventual anti-HIV activity” (Retrovirology, 2011) can be followed below.

The target of test [1] is immobilized GNA (Galanthus nivalis, UniProt P30617). Description: SPR steady-state affinity of oligosaccharides with immobilized GNA. The settings on record: apparent, N.D. = not detectable, no binding curves. The protocol: (§1) The experimental data were fit using the steady-state affinity model (Biacore T100 Evaluation software 2.0.2) to determine the apparent KD-values.
(§2) The apparent KD was calculated by steady-state affinity analysis (Table 6).

For test [2], the target named is immobilized GNAmaize. Description: SPR steady-state affinity of oligosaccharides with immobilized GNAmaize. Also on record: species or system Zea mays. The settings on record: apparent, N.D. = not detectable, binding detected = KD could not be determined. The protocol: as §1, §2
Test [3] concerns HIV-1(IIIB). Description: Antiretrovirus assay, HIV-1(IIIB)-induced cytopathicity (syncytium formation) in CEM cell cultures. It is filed as cell-based. The settings on record: inhibit virus-induced cytopathicity in CEM cell cultures by 50%. As to the method: (§3) CEM cells (5 × 10^5 cells per ml) were suspended in fresh culture medium and infected with HIV-1 and HIV-2 at 100 times the CCID50 (50% cell culture infective doses) per ml of cell suspension, of which 100 μl was mixed with 100 μl of the appropriate dilutions of the test compounds, and further incubated at 37°C. After 4 to 5 days, syncytia formation was recorded microscopically in the cell cultures. The 50% effective concentration (EC50) corresponds to the compound concentration required to prevent syncytium formation by 50% in the virus-infected CEM cell cultures.
(In general: Protection from cytopathic effect is a common read-out in antiviral testing.)

For test [4], the system named is HIV-2(ROD). The test can be described thus: Antiretrovirus assay, HIV-2(ROD)-induced cytopathicity (syncytium formation) in CEM cell cultures. It is filed as cell-based. The note with it: inhibit virus-induced cytopathicity in CEM cell cultures by 50%. The protocol: as §3
Test [5] concerns syncytia formation between HuT-78/HIV-1 and Sup-T1 cells. The test can be described thus: Co-cultivation assay between Sup-T1 and persistently HIV-1-infected HuT-78 cells (syncytia formation). Format: cell-based, Human. The note with it: inhibit syncytia formation between HuT-78/HIV-1 and Sup-T1 cells by 50%. As to the method:
Persistently HIV-1(IIIB)-infected HuT-78 cells (designated HuT-78/HIV-1) were washed to remove cell-free virus from the culture medium, and 5 × 10^4 cells (50 μl) were transferred to 96-well microtiter plates. Next, a similar amount of Sup-T1 cells (50 μl) and appropriate concentrations of test compound (100 μl), were added to each well.

Test [6] relates to HIV-1 UG273 (clade A, R5). The test can be described thus: p24 production in HIV-infected PBMC, clinical isolate UG273. The settings on record: inhibit p24 production of HIV-infected PBMC. It is filed as cell-based. The protocol:
(§4) Buffy coat preparations from healthy donors were obtained from the Blood Bank in Leuven. Peripheral blood mononuclear cells (PBMC) were isolated by density gradient centrifugation over Lymphoprep (density = 1.077 g/ml; Nycomed, Oslo, Norway). The PBMC were transferred to RPMI 1640 medium supplemented with 10% fetal calf serum (BioWhittaker Europe) and 2 mM L-glutamine and then stimulated for 3 days with phytohemagglutinin (PHA; Murex Biotech Limited, Dartford, United Kingdom) at 2 μg/ml. […] Supernatant was collected at days 8 to 10, and HIV-1 core antigen in the culture supernatant was analyzed by the p24 core antigen enzyme-linked immunosorbent assay (ELISA; DuPont-Merck Pharmaceutical Co., Wilmington, Del.).

For test [7], the system named is HIV-1(BaL) (Clade B). Description: p24 production in HIV-infected PBMC, BaL. It is filed as cell-based. The note with it: inhibit p24 production of HIV-infected PBMC. As to the method: as §4
In test [8] the test system is HIV-1 DJ259 (clade C, R5). The test can be described thus: p24 production in HIV-infected PBMC, clinical isolate DJ259. Format: cell-based. The note with it: inhibit p24 production of HIV-infected PBMC. The protocol:
as §4

Test [9] deals with HIV-1 ID12 (clade A/E, R5). The test can be described thus: p24 production in HIV-infected PBMC, clinical isolate ID12. It is filed as cell-based. The note with it: inhibit p24 production of HIV-infected PBMC. The protocol: as §4
The test system of test [10] is DC-SIGN-mediated capture of HIV-1(IIIB) by Raji/DC-SIGN cells. Description: Capture of HIV-1(IIIB) by Raji/DC-SIGN cells (p24 Ag ELISA). The note with it: HIV-1(IIIB) capture by Raji/DC-SIGN cells. Format: cell-based. The protocol:
(§5) The experiment was performed as described previously. Briefly, B-lymphocyte DC-SIGN-expressing (Raji/DC-SIGN) cells were suspended in cell culture medium at 2 × 10^6 cells/ml. 100 μl of HIV-1(IIIB) (~250,000 pg p24) were added in the presence of 400 μl of serial dilutions of the test compounds. After 60 minutes of incubation, the cells were carefully washed 3 times to remove unbound virions and resuspended in 1 ml of cell culture medium. The captured HIV-1(IIIB) was quantified by a p24 Ag ELISA. From the Raji/DC-SIGN cell suspension, 200 μl were also added to the wells of a 48-well microtiter plate in the presence of 800 μl uninfected C8166 cells (2.5 × 10^5 cells/ml). These cocultures were further incubated at 37°C, and syncytia formation was evaluated microscopically after ~ 18 to 42 h, and viral p24 Ag determination in the culture supernatants was performed.
(§6) One hour later, free virus particles and the test compounds were carefully removed from the cell cultures by several washing steps.
(In an ELISA, binding on a coated surface is turned into a signal by an enzyme label.)

The subject of test [11] is transmission of DC-SIGN-captured HIV-1(IIIB) to CD4+ T-lymphocyte C8166 cells. Description: Transmission of DC-SIGN-captured HIV-1(IIIB) to C8166 cells (syncytia formation). It is filed as cell-based. The settings on record: transmission of DC-SIGN-captured virions to CD4+ T cells (C8166). As to the method:
as §5, §6

“Also recorded” adds a separate entry of the source.

Chain of immobilized GNA (P30617 24-128): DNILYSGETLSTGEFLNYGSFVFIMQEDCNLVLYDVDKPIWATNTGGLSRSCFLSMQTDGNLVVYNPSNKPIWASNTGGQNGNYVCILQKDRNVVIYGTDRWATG

Consider `OC[C@H]1O[C@H](O[C@@H]2[C@@H](O[C@@H]3C(O)O[C@H](CO)[C@@H](O)[C@@H]3O)O[C@H](CO)[C@@H](O)[C@@H]2O)[C@@H](O)[C@@H](O)[C@@H]1O` (stereo partly drawn) [(α1,2-man)3], for which, in test [1], the Kd is greater than 1000 µM. The “KD, immobilized GNAmaize” value in [2] is on record as “did not bind”.
In the case of `OC[C@H]1O[C@H](O[C@H]2[C@H](O)[C@@H](CO)OC(O)[C@H]2O)[C@@H](O)[C@@H](O)[C@@H]1O` (stereo partly drawn) [(α1,3-man)2], in test [1], the “KD, immobilized GNA” value is listed as “preferentially bind” and the Kd is greater than 2000 µM. Further, the “KD, immobilized GNAmaize” value in [2] is recorded as “did not bind”.
For `CC(=O)N[C@H]1[C@H](O[C@@H]2C(O)O[C@H](CO)[C@@H](O)[C@@H]2O)O[C@H](CO)[C@@H](O)[C@@H]1O` (some centres unmarked) [GlcNAcβ1,2Man, GlcNAcß1,2Man], the “KD, immobilized GNA” value in test [1] was “didn't bind; also recorded: not to GNA”. Further, the figures for the “KD, immobilized GNAmaize” value in test [2] and in test [2] (listed as GlcNAcß1,2Man) were “binding detected^b” and “able to measurably bind”, respectively.
For `CC(=O)N[C@H]1[C@H](O[C@H]2[C@H](O)[C@@H](NC(C)=O)C(O)O[C@@H]2CO)O[C@H](CO)[C@@H](O[C@@H]2O[C@H](CO[C@H]3O[C@H](CO)[C@@H](O)[C@H](O)[C@@H]3O[C@@H]3O[C@H](CO)[C@@H](O)[C@H](O)[C@H]3NC(C)=O)[C@@H](O)[C@H](O[C@H]3O[C@H](CO)[C@@H](O)[C@H](O)[C@@H]3O[C@@H]3O[C@H](CO)[C@@H](O)[C@H](O)[C@H]3NC(C)=O)[C@@H]2O)[C@@H]1O` (some centres unmarked) [GlcNAcβ1,2Manα1,3(GlcNAcβ1,2Manα1,6)Manβ1,4GlcNAcβ1,4GlcNAc], the “KD, immobilized GNA” value in test [1] was “not to GNA”. Moreover, the “KD, immobilized GNAmaize” value in test [2] is given as “binding detected^b”; in test [2] (listed as GlcNAcβ1,2Manα1,3(GlcNAcβ1,2Manα1,6) Manβ1,4GlcNAcβ1,4GlcNAc) it was “able to bind”.
In the case of “GNA: mannose-specific tetrameric plant lectin of 50 kDa from snowdrop (Galanthus nivalis) bulbs”, the EC50 (commonly the concentration needed to bring the measured effect to its halfway point) in [3] came to 0.007 ± 0.001 µM; in [4], 0.008 ± 0.001 µM; in test [5] it was 0.062 ± 0.064 µM; in [6] it was 0.046 µM; in [7] it was 0.13 µM; in test [8], 0.84 µM. For the same molecule, the EC50 in test [10] came out at 0.04 ± 0.01 µM; in test [11] it was 0.006 ± 0.005 µM. In addition, the “EC50 Clade A/E, ID12” value in test [9] is 0.38 µM.
